One data set deals with LAT1 mRNA. Kind of data set: LAT1 gene expression (RT-qPCR) after LAT1 gene silencing in human colon cancer HTC-116 cells. It is filed as cell-based. The note with it: treatment 6 h. The protocol: (§1) SK-HEP-1, T24, HT-1080 and HCT-116 cell lines were maintained in a humidified atmosphere of 5% CO2 at 37° C. SK-HEP-1 cells were grown in RPMI-1640 (Sigma, St. Louis, Mo.) supplemented with 20% fetal bovine serum (FBS) (Gibco, UK), 100 U/mL penicillin G, 0.25 μg/mL amphotericin B, 100 μg/mL streptomycin (Gibco, UK), 25 mM sodium bicarbonate (Merck, Germany) and 25 mM N-2-hydroxyethylpiperazine-N′-2-ethanosulfonic acid (HEPES) (Sigma, St. Louis, Mo.). T24 and HT-1080 cells were grown, respectively, in Dulbecco's Modified Eagle's Medium (DMEM)—high glucose (Sigma, St. Louis, Mo.) and DMEM—low glucose (Sigma, St. Louis, Mo.), supplemented with 10% FBS (Gibco, UK), 100 U/mL penicillin G, 0.25 μg/mL amphotericin B, 100 μg/mL streptomycin (Gibco, UK), 25 mM sodium bicarbonate (Merck, Germany) and 25 mM HEPES (Sigma, St. Louis, Mo.). HCT-116 cells were grown in McCoy's 5A (Sigma, St. Louis, Mo.) supplemented with 10% FBS (Gibco, UK), 100 U/mL penicillin G, 0.25 μg/mL amphotericin B, 100 μg/mL streptomycin (Gibco, UK), 25 mM sodium bicarbonate (Merck, Germany) and 25 mM HEPES (Sigma, St. Louis, Mo.). For all cell lines the medium was changed every 2 days, and cells reached confluence 3-4 days after initial seeding. For subculturing, cells were dissociated with 0.25% trypsin-ethylenediaminetetraacetic acid (EDTA) (Sigma, St. Louis, Mo.), split 1:15 or 1:20 and subcultured in a 21-cm^2 growth area (Sarstedt, Germany).
Total RNA was isolated and purified using the SV Total RNA Isolation System (Promega, USA) according to manufacturer's instructions. RNA quality and concentration were verified in the NanoDrop ND1000 Spectrophotometer (Thermo Scientific, USA), and RNA integrity and genomic DNA contamination were evaluated by agarose gel electrophoresis. Total RNA (1 μg) was converted into cDNA using the Maxima Scientific First Strand cDNA Synthesis Kit for RT-qPCR (Thermo Scientific, USA), according to instructions. The following protocol was used: 1st step, 10 min at 25° C.; 2nd step, 15 min at 50° C.; 3rd step, 5 min at 85° C. cDNA was used for qPCR analysis using Maxima SYBR Green qPCR Master Mix (Thermo Scientific, USA) in the StepOnePlus instrument (Applied Biosystems, USA). QuantiTect Primer Assay for LAT1 and ASCT2 and for the endogenous control gene GAPDH (Quiagen, Germany) were used. The qPCR reaction was performed in 96-well PCR plates (Sarstedt, Germany) as follows: one cycle of 10 min at 95° C., followed by 40 PCR cycles at 95° C. 15 s and 60° C. 60 s. […] No template controls were always evaluated for each target gene. Quantification cycle (Cq) values were generated automatically by the StepOnePlus 2.3 Software and the ratio of the target gene was expressed in comparison to the endogenous control gene GAPDH.
(§2) Cells were plated in 24-well (Sarstedt, Germany) or 6-well plates (Sarstedt, Germany) or 96-well plates with black walls clear bottom (BD Biosciences, USA) and incubated 24 h under normal growth conditions. siRNAs against LAT1 and transfection agent were diluted at desired concentrations and mixed according to transfection agent manufacturer's instructions. The mixture was incubated 20 min at RT for siRNA-complex formation, after which it was added to the cells and incubated at 37° C., 5% CO2. After the incubation period, serum and antibiotic was restored and cells were further incubated at normal conditions for the desired time points until evaluation of LAT1 activity or LAT1 expression (immunoblotting and RT-qPCR).
In general terms: Real-time PCR tracks product formation cycle by cycle.

Data set [1] has as its system LAT1. Kind of data set: LAT1 activity: [^14C]-L-leucine uptake in fibrosarcoma HT-1080 cells after LAT1 gene silencing. It is filed as cell-based, human. The note with it: 5 nM siRNA, treatment 6 h, at 48 h, 0.4% Lipofectamine 2000, FIG. 8A. The protocol: (§3) Cells were plated in 24-well plates (Sarstedt, Germany) and grown until confluence was reached. On the day of the experiment, cell culture medium was aspirated and cells were preincubated for 15 min in Hanks' medium (NaCl 140 mM, KCl 5 mM, MgSO4.7H2O 0.8 mM, K2HPO4 0.33 mM, KH2PO4 0.44 mM, MgCl2.6H2O 1 mM, CaCl2) 0.025 mM, Tris-HCl 9.75 mM, pH 7.4). Uptake was initiated by addition of Hanks' medium with 0.25 μM [^14C]-L-leucine in the absence and in the presence of 3 mM unlabeled L-leucine. During preincubation and incubation cells were continuously shaken and maintained at 37° C. Uptake was terminated after 1 min by rapid removal of uptake solution by means of a vacuum pump connected to a Pasteur pipette, followed by a rapid wash with Hanks' medium. Subsequently, cells were solubilized in 0.1% vol/vol Triton X-100 (dissolved in 5 mM Tris-HCl, pH 7.4), and radioactivity was measured by liquid scintillation counting.
as §2

Data set [2] deals with human colon cancer HTC-116 cells. Kind of data set: Cell proliferation assay (calcein-AM) in human colon cancer HTC-116 cells. The data set is classed as cell-based. The note with it: for cell proliferation / proliferation: treatment 6 h; for cell proliferation: 72 h exposure, 0.1% Injectin, FIG. 14; for proliferation: at 72 h, 0.17% Lipofectamine 2000 or 0.1% Injectin, FIGS. 19B and 20B. The protocol: as §1
Cell proliferation was measured using calcein-AM (Thermo Fisher Scientific, USA). The membrane permeant calcein-AM, a nonfluorescent dye, is taken up and converted by intracellular esterases to membrane impermeant calcein, which emits green fluorescence. Cells were plated in 96-well plates with black walls clear bottom (BD Biosciences, USA) and incubated 24 h under normal growth conditions. Cells were incubated with test items at 37° C., 5% C02. After the incubation period, serum and antibiotic was restored and cells were further incubated at normal conditions during 72 h. After treatment with test substances or vehicle, cells were washed twice with Hanks' medium and loaded with 2 μM calcein-AM in Hanks' medium, at 37° C. for 30 min. Fluorescence was measured at 485 nm excitation and 530 nm emission wavelengths in a microplate spectrofluorometer (Gemini EM, Molecular Devices). Nine consecutive fluorescence measurements are performed per well, to allow fluorescence readings in the whole area of the well, which was then considered for the calculation of mean fluorescence per well. To determine minimum staining for calcein (calceinmin), eight wells were treated with ethanol 30 min before calcein-AM addition. The percent cell number is calculated as [(calceinsample)/(calceincontrol)]×100.

Data set [3] has as its target T1, LAT1 (Homo sapiens, UniProt Q01650).
T1 construct: recognized the presence of LAT1 and ASCT2 in all cancer cell lines; endogenous in cells
In words: Sodium-independent [^14C]-L-leucine uptake in carcinoma cells, sensitivity to unlabelled L-leucine. The note with it: epithelial carcinoma cells; 3 mM unlabelled L-leucine; FIGS. 3A-3D. It is filed as cell-based. The protocol:
as §3

For another data set, the target named is T2, ASCT2 (Homo sapiens, UniProt Q15758).
T2 construct: recognized the presence of LAT1 and ASCT2 in all cancer cell lines; endogenous in cells
T2 sequence (Q15758 1-541): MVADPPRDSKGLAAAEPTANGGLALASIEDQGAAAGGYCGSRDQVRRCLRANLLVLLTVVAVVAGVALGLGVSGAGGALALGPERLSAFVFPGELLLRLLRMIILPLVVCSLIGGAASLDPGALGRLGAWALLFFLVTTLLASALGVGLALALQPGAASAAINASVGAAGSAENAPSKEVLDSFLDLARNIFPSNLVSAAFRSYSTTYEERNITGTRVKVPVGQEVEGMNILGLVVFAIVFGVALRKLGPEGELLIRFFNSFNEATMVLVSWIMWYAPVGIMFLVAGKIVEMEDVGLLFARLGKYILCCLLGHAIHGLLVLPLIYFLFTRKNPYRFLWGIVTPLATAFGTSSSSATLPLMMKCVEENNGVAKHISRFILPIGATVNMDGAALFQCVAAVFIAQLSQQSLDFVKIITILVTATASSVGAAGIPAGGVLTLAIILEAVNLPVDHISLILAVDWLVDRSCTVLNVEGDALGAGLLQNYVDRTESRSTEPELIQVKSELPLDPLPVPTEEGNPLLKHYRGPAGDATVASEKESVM
In words: Sodium-dependent [^14C]-L-alanine uptake in carcinoma cells, sensitivity to unlabelled L-alanine. The data set is classed as cell-based. The note with it: epithelial carcinoma cells; 3 mM unlabelled L-alanine; FIGS. 3E-3H. The protocol: as §3, with “the experiment, Cell culture medium” for “the experiment, cell culture medium”, “Hanks' medium (ChCl 140 mM,” for “Hanks' medium (NaCl 140 mM,”, “initiated by the addition of” for “initiated by addition of”, “0.25 μM [^14C]-L-alanine in the” for “0.25 μM [^14C]-L-leucine in the”, “mM unlabeled L-alanin. During preincubation” for “mM unlabeled L-leucine. During preincubation”

The mark [4] stands for this setting: 5 or 25 nM siRNA, at 24 h or 48 h, 0.5% Lipofectamine 2000, FIGS. 9A and 9C.
[5] abbreviates: 72 h, 0.17% Lipofectamine 2000 or 0.1% Injectin, FIG. 19A.

T1 sequence (Q01650 whole entry): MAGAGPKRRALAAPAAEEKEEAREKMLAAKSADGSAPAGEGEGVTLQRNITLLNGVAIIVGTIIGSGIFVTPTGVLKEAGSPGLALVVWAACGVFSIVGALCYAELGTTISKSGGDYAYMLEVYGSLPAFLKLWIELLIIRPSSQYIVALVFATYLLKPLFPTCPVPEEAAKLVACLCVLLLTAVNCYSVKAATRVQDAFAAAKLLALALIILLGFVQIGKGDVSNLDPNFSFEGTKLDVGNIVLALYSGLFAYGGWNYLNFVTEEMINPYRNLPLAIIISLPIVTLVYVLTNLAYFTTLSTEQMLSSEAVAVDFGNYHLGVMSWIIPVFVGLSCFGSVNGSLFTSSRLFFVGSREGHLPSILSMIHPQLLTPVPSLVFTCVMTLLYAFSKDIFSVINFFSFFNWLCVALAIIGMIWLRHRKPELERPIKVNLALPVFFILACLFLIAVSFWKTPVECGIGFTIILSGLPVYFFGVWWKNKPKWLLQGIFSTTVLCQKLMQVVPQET
T1 sequence (P08195 102-630 partner): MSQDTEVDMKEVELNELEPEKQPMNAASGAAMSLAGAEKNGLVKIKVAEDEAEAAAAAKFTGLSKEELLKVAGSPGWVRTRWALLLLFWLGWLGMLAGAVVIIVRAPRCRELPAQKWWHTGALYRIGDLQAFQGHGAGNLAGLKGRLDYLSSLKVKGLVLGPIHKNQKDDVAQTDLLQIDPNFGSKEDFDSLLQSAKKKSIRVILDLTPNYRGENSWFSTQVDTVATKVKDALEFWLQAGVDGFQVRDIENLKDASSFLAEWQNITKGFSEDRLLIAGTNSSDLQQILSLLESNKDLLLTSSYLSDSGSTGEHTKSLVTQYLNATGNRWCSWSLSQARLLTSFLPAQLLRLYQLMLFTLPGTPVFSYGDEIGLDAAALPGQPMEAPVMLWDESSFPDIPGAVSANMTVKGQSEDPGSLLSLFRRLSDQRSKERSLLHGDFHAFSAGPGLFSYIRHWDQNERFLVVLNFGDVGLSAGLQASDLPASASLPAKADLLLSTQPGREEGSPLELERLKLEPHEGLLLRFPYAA

On to “61/165/396 (sense CGUGAACUGCUACAGCGUGAA; antisense UUCACUCUGUAGCAGUUCACG; chemistry not given here)”, for which the “LAT1 mRNA relative abundance” value in the data set on LAT1 mRNA (setting [4]) is recorded as “decreased”. The “LAT1 mRNA relative abundance” value with LAT1 mRNA (setting [5]) is reported as “significantly decreased”. Also, the “[^14C]-L-leucine (0.25 μM) uptake at initial rate of uptake (1 min)” value with LAT1 [1] was “decreased”. In addition, in data set [2], the cell proliferation result is on record as “decreased” and the proliferation entry is on record as “significantly decreased”.
On to “58/162/411 (sense CUUCGCCACCUACCUGCUCAA; antisense UUGAGCAGGUAGGUGGCGAAG; chemistry not given here)”, for which the “LAT1 mRNA relative abundance” value is listed as “decreased” in the data set on LAT1 mRNA (setting [4]) and “significantly decreased” in the data set on LAT1 mRNA (setting [5]). Also, the “[^14C]-L-leucine (0.25 μM) uptake at initial rate of uptake (1 min)” value with LAT1 [1] is given as “decreased”. Further, the cell proliferation entry in data set [2] is “decreased”. Besides, the proliferation result in data set [2] is listed as “significantly decreased”.
As to `CC(C)C[C@H](N)C(=O)O` [L-leucine], the “Sodium-independent [^14C]-L-leucine (0.25 μM) uptake at initial rate of uptake (1 min)” value on LAT1 [3] was “significantly (P<0.001) reduced”.
As for `C[C@H](N)C(=O)O` [L-alanine], the “Sodium-dependent [^14C]-L-alanine (0.25 μM) uptake at initial rate of uptake (1 min)” value at ASCT2 is “significantly (P<0.01) reduced”.
On to “61/391/392 (chain 1 CGUGAACUGCUACAGCGUGAATT; chain 2 UUCACUCUGUAGCAGUUCACGTT; siRNA; sugars by position and backbone not given here; further chemistry not fully specified)”, for which the “LAT1 mRNA relative abundance” value in the data set with LAT1 mRNA (setting [4]) was “decreased”. The “LAT1 mRNA relative abundance” value in the data set on LAT1 mRNA (setting [5]) was “significantly decreased”. Moreover, the “[^14C]-L-leucine (0.25 μM) uptake at initial rate of uptake (1 min)” value in the data set on LAT1 [1] is reported as “decreased”. Besides, the “Effect of 5-fluoruracil upon proliferation in combination with the siRNA” value in data set [2] (5-FU 10 μM, siRNA 25 nM, 72 h, 0.037% Injectin, FIG. 17A) is “not”. For the same compound, in data set [2], the cell proliferation entry is reported as “decreased” and the proliferation result is “significantly decreased”.

The record behind these values is patent US10590422B2, “Anticancer therapeutic intervention” (PHYZAT BIOPHARMACEUTICALS, LDA., priority 2017, dated 2020).
